Measurements published in ChEMBL document CHEMBL1201862, “PubChem BioAssay data set” (2004).
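A five-concentration, 48-hour dose response in 96-well plates underlies each endpoint, interpolated linearly between surrounding concentrations. At the GI50, growth is halved.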 Activity calls are given as the source filed them. No stated cut-off is given here; in the data, active = GI50 up to about 1.1 µM and inactive = higher.

Assays:
Test in all cases: DTP human tumour cell line panel, 48 h
EKVX = system: EKVX
SK-MEL-2 = system: SK-MEL-2
UO-31 = system: UO-31
OVCAR-3 = system: OVCAR-3
M14 = system: M14
Hs-578T = system: Hs-578T
ACHN = system: ACHN
SW-620 = system: SW-620
SK-MEL-5 = system: SK-MEL-5
SN12C = system: SN12C
OVCAR-8 = system: OVCAR-8
HT-29 = system: HT-29
BT-549 = system: BT-549
HCT-116 = system: HCT-116
A549 = system: A549
NCI-H522 = system: NCI-H522
HCT-15 = system: HCT-15
RPMI-8226 = system: RPMI-8226
MDA-MB-435 = system: MDA-MB-435
MDA-MB-231 = system: MDA-MB-231

Measured: GI50

COc1ccc([N+](=O)[O-])cc1[I+]c1cc([N+](=O)[O-])ccc1OC
41.1 µM: HCT-15
inactive: EKVX 33.8 µM | SK-MEL-2 27.5 µM | UO-31 60.5 µM | OVCAR-3 54.1 µM | M14 39.6 µM | Hs-578T 91.6 µM | ACHN 74.3 µM | SW-620 45.3 µM | SK-MEL-5 12.4 µM | SN12C 43.5 µM | OVCAR-8 73.6 µM | HT-29 38 µM | BT-549 30.9 µM | HCT-116 89.5 µM | A549 45.8 µM | NCI-H522 27 µM | RPMI-8226 23.7 µM | MDA-MB-435 21.3 µM | MDA-MB-231 > 100 µM

O=[N+]([O-])c1ccc(C(Nc2ccccc2)c2ccc3cccnc3c2O)cc1 (stereo not given)
inactive: EKVX 6.04 µM | SK-MEL-2 24.3 µM | UO-31 6.78 µM | OVCAR-3 4.02 µM | M14 9.4 µM | Hs-578T 19.6 µM | ACHN 5.61 µM | SW-620 6.27 µM | SK-MEL-5 7.18 µM | SN12C 7.94 µM | OVCAR-8 3.85 µM | HT-29 7.08 µM | BT-549 10.3 µM | HCT-116 7.8 µM | A549 8.04 µM | NCI-H522 4.24 µM | RPMI-8226 5.13 µM | MDA-MB-435 14.4 µM | MDA-MB-231 16.2 µM
4.26 µM: HCT-15

COCCOC(C)C(=O)C(O)S(=O)(=O)O (stereo not given)
inactive: EKVX > 100 µM | SK-MEL-2 > 100 µM | UO-31 > 100 µM | OVCAR-3 > 100 µM | M14 > 100 µM | Hs-578T > 100 µM | ACHN > 100 µM | SW-620 > 100 µM | SK-MEL-5 > 100 µM | SN12C > 100 µM | OVCAR-8 > 100 µM | HT-29 > 100 µM | BT-549 > 100 µM | HCT-116 > 100 µM | A549 > 100 µM | NCI-H522 > 100 µM | RPMI-8226 > 100 µM | MDA-MB-435 > 100 µM | MDA-MB-231 > 100 µM
> 100 µM: HCT-15

N#C/C(=C\c1ccc2[nH]ccc2c1)C(=O)NCCCCNC(=O)/C(C#N)=C/c1ccc2[nH]ccc2c1
inactive: EKVX > 31.6 µM | SK-MEL-2 > 31.6 µM | UO-31 > 31.6 µM | OVCAR-3 > 31.6 µM | M14 > 31.6 µM | Hs-578T > 10 µM | ACHN > 31.6 µM | SW-620 > 31.6 µM | SK-MEL-5 > 31.6 µM | SN12C > 31.6 µM | OVCAR-8 > 31.6 µM | HT-29 > 31.6 µM | BT-549 > 10 µM | HCT-116 > 31.6 µM | A549 > 100 µM | NCI-H522 > 31.6 µM | RPMI-8226 > 10 µM | MDA-MB-435 > 10 µM | MDA-MB-231 > 10 µM
> 31.6 µM: HCT-15

COC(=O)C(CCC(=O)CCl)N1C(=O)c2ccccc2C1=O (stereo not given)
inactive: EKVX 19.9 µM | SK-MEL-2 6.9 µM | UO-31 14.4 µM | OVCAR-3 11.6 µM | M14 5.27 µM | Hs-578T 12.6 µM | ACHN 13.3 µM | SW-620 3.62 µM | SK-MEL-5 4.95 µM | SN12C 10.5 µM | OVCAR-8 12.3 µM | HT-29 9.64 µM | BT-549 8.97 µM | HCT-116 5.07 µM | A549 17.7 µM | NCI-H522 1.73 µM | RPMI-8226 3.37 µM | MDA-MB-435 10.1 µM | MDA-MB-231 12.6 µM
4.25 µM: HCT-15
